Patent US20140303144A1, “COMPOUNDS AND METHODS OF TREATING HYPERTENSION” (Medivation Technologies, Inc., priority 2011, published 2014)
One block for each molecule: values may come before it.

Legend:
[1] = target: T1, human recombinant adrenergic α2B receptor (Homo sapiens, UniProt P18089); experiment: Adrenergic α2B radioligand binding assay ([3H]Rauwolscine); conditions: read-out: Percentage inhibition of ligand binding, Adrenergic α2B; for inhibition at 1 µM: 1 μM compound
T1 construct: expressed in transfected cells; host or cells: CHO-K1 cells
T1 sequence (P18089 1-450): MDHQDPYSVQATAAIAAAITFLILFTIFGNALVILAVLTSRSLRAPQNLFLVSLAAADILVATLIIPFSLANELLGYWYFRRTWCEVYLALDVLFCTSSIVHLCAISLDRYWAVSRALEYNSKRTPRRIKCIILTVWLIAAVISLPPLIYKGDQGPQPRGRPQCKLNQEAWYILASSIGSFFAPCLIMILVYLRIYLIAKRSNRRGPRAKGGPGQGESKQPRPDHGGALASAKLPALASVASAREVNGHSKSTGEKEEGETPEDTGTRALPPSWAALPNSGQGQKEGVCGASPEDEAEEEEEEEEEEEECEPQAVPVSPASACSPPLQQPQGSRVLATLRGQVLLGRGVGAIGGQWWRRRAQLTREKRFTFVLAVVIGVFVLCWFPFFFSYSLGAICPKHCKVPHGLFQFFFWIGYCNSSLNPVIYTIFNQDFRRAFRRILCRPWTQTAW
Method: To evaluate in radioligand binding assays the activity of compounds of the invention, human recombinant adrenergic α2B receptor expressed in Chinese hamster ovary (CHO) K1 cells (Uhlen, S. et al, Eur. J. Pharmacol. 343(1):93, 1998) in a modified Tris-HCl buffer (50 mM Tris-HCl, pH 7.4, 12.5 mM MgCl2, 1 mM EDTA, 0.2% BSA) was used. Compounds of the invention were incubated with 2.5 nM [3H]Rauwolscine for 60 min at 25° C. Non-specific binding was estimated in the presence of 10 μM Prazosin. Receptor proteins were filtered and washed, the filters were then counted to determine [3H]Rauwolscine specifically bound. Compounds were screened at 1 μM or lower, using 1% DMSO as vehicle. Compounds of the invention were tested in this biochemical assay and percent inhibition of specific binding was determined. Biochemical assay results are presented as the percent inhibition of specific binding in Tables B1A-B1D.

[2] = target: T2, rat adrenergic α1B receptor obtained from Wistar Rat liver (Rattus norvegicus, UniProt P15823); experiment: Adrenergic α1B radioligand binding assay ([3H]Prazosin); conditions: 0.1 μM compound; read-out: Percentage inhibition of ligand binding, Adrenergic α1B
T2 construct: rat adrenergic α1B receptor obtained from Wistar Rat liver; from tissue; host or cells: Wistar rat liver
T2 sequence (P15823 1-515): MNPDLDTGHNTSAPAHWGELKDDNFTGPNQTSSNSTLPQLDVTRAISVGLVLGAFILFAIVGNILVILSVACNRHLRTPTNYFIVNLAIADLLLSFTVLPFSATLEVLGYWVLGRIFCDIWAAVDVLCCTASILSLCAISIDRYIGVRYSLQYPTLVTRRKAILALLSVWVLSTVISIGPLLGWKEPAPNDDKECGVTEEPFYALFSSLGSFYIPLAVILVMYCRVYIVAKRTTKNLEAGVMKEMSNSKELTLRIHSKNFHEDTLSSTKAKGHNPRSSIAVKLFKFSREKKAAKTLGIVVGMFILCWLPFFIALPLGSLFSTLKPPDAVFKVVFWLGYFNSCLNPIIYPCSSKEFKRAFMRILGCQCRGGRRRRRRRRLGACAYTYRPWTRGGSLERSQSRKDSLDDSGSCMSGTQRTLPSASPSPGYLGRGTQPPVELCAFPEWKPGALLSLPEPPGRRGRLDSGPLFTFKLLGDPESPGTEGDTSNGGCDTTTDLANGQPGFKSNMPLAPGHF
Method: To evaluate in radioligand binding assays the activity of compounds of the invention, rat adrenergic α1B receptor obtained from Wistar Rat liver (Garcia-S'ainz, J. et al, Biochem. Biophys. Res. Commun. 186:760, 1992; Michel, A. et al, Br. J. Pharmacol. 98:883, 1989) in a modified Tris-HCl buffer (50 mM Tris-HCl buffer, pH 7.4, 0.5 mM EDTA) was used. Compounds of the invention were incubated with 0.25 nM [^3H]Prazosin for 60 min at 25° C. Non-specific binding was estimated in the presence of 10 μM phentolamine. Receptor proteins were filtered and washed, the filters were then counted to determine [^3H]Prazosin specifically bound. Compounds were screened at 1 μM or lower, using 1% DMSO as vehicle. Compounds of the invention were tested in this biochemical assay and percent inhibition of specific binding was determined. Biochemical assay results are presented as the percent inhibition of specific binding in Tables B1A-B1D.

[3] = target: T3, human recombinant adrenergic α2A receptor (Homo sapiens, UniProt P08913); experiment: Adrenergic α2A radioligand binding assay ([3H]MK-912); conditions: read-out: Percentage inhibition of ligand binding, Adrenergic α2A; for inhibition at 1 µM: 1 μM compound
T3 construct: expressed in transfected cells; host or cells: insect Sf9 cells
T3 sequence (P08913 1-465): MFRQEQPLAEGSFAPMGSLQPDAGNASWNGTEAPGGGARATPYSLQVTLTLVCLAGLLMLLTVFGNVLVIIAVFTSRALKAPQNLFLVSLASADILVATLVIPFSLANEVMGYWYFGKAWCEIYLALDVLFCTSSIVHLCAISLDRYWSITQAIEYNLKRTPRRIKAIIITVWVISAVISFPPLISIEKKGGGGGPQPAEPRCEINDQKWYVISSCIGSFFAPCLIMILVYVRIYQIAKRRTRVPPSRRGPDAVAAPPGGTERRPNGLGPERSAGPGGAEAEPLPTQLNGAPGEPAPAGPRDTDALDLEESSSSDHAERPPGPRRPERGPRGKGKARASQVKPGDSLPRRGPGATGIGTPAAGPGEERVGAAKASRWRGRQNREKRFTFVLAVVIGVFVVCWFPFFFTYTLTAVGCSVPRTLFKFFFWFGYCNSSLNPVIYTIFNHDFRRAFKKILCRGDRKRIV
Method: To evaluate in radioligand binding assays the activity of compounds of the invention, human recombinant adrenergic α2A receptor expressed in insect Sf9 cells (Uhlen, S. et al, J. Pharmacol. Exp. Ther. 271:1558, 1994) in a modified Tris-HCl buffer (50 mM Tris-HCl, pH 7.4, 12.5 mM MgCl2, 2 mM EDTA) was used. Compounds of invention were incubated with 1 nM [^3H]MK-912 for 60 min at 25° C. MK912 was (2S-trans)-1,3,4,5′,6,6′,7,12b-octahydro-1′,3′-dimethyl-spiro[2H-benzofuro[2,3-a]quinolizine-2,4′(1′H)-pyrimidin]-2′(3′H)-one hydrochloride Non-specific binding was estimated in the presence of 10 μM WB-4101 (2-(2,6-Dimethoxyphenoxyethyl)aminomethyl-1,4-benzodioxane hydrochloride). Receptor proteins were filtered and washed, the filters were then counted to determine [^3H]MK-912 specifically bound. Compounds were screened at 1 μM or lower, using 1% DMSO as vehicle. Compounds of the invention were tested in this biochemical assay and percent inhibition of specific binding was determined. Biochemical assay results are presented as the percent inhibition of specific binding in Tables B1A-B1D.

SH-SY5Y cells = experiment: Cell viability assay (MTS reduction) against 4-Br-A23187 challenge; type: cell-based; conditions: Homo sapiens, SH-SY5Y, compound 10 nM, 4-Br-A23187 (2 μM) for 24 h, Control = 100, Vehicle = 0, read-out: Relative Cytoprotective capacity
Method: SH-SY5Y cells cultured in DMEM/F12 media supplemented with 10% FBS were seeded in 96-well microplates at 150,000 cells/cm^2. After 24 h, cells were depleted from FBS and kept in culture for 24 h before the experiment. A stock solution was prepared by dissolving the calcium ionophore 4-Br-A23187 (Calbiochem Cat. N^o 100107) in DMSO at 25 mM. Cells were then treated with 4-Br-A23187 (2 μM), hydrogen peroxide (300 μM) or the mitochondrial toxin rotenone (25 μM) in the presence of vehicle or Compound of the Invention for 24 h. Cell death was determined by measurements of LDH release according to the Cytotoxicity Detection KitPlus (Roche, Mannheim, Germany). Cell viability was determined by measuring the capacity of cells to metabolize MTS tetrazolium (MTS) according to the Cytotoxicity Detection KitPlus (Roche, Mannheim, Germany) and MTS reduction was assessed by the CellTiter 96® AQueous One Solution Cell Proliferation assay (Promega Corporation, Madison, Wis., USA). Compounds were screened at 10 nM, using DMSO as vehicle. Assay results for the experiments with Br-A23187 were presented as the MTS reduction capacity (cell viability) of untreated cells (control), 4-Br-A23187-treated cells (vehicle), and co-incubation of Br-A23187 with Compounds of the Invention treated cells and using […] (FCCP) at 10 μM for 30 min as a control. This assay assesses the ability of the test compounds to protect against cell death that was mediated by mitochondrial dysfunction. In the assay, the calcium ionophore 4-Br-A23187 was used to challenge the cells, causing calcium levels to rise in mitochondria, which leads to depolarization and cell death. Test compounds were assessed for their ability to prevent cell death in response to challenge with 4-Br-A23187.

[4] = target: T4, human recombinant adrenergic α1D receptor (Homo sapiens, UniProt P25100); experiment: Adrenergic α1D radioligand binding assay ([3H]Prazosin); conditions: 1 μM compound; read-out: Percentage inhibition of ligand binding, Adrenergic α1D
T4 construct: expressed in transfected cells; host or cells: HEK-293 cells
T4 sequence (P25100 1-572): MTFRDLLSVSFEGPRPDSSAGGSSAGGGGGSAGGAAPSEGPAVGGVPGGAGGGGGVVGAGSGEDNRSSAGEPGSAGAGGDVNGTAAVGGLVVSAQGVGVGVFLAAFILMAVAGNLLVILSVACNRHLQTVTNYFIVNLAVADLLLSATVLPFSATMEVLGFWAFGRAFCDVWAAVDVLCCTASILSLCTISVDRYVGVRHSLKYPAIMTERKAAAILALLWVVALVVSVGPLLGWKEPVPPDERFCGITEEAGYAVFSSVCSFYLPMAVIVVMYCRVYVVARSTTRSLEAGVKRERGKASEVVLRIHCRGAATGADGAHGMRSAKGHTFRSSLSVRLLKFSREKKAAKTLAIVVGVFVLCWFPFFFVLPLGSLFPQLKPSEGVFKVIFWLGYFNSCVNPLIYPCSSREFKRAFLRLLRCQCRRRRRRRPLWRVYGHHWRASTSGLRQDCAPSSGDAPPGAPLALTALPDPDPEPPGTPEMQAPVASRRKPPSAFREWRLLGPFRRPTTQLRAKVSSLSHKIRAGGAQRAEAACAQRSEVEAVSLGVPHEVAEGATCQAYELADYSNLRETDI
Method: To evaluate in radioligand binding assays the activity of compounds of the invention, human recombinant adrenergic α1D receptor expressed in human embryonic kidney (HEK-293) cells (Kenny, B. et al, Br. J. Pharmacol. 115(6):981, 1995) in a 50 mM Tris-HCl buffer, pH 7.4, was used. Compounds were incubated with 0.6 nM [3H]Prazosin for 60 min at 25° C. Non-specific binding was estimated in the presence of 10 μM phentolamine. Receptor proteins were filtered and washed, the filters were then counted to determine [3H]Prazosin specifically bound. Compounds were screened at 1 μM or lower, using 1% DMSO as vehicle. Biochemical assay results are presented as the percent inhibition of specific binding in Tables B1A-B1D.

inhibition at 0.03 µM ([1]; 0.03 μM compound): 26%
inhibition at 0.1 µM [2]: -1%
inhibition at 0.1 µM ([3]; 0.1 μM compound): 7%
Structure (SMILES): Cc1cc(CC(O)c2ccncc2)c2[nH]c3c(c2c1)CN(C)CC3 (stereo not shown) [A43]

Structure (SMILES): Cc1ccc2c(c1)c1c3n2CC(c2ccc(F)cc2)CCC3(C)CN(C)C1 (stereo not shown) [D7]
viability at 0.01 µM (SH-SY5Y cells): 72.1%

Structure (SMILES): Cc1cc(CCc2ccc(C)nc2)c2[nH]c3c(c2c1)CN(C)CC3 [A2]
viability at 0.01 µM (SH-SY5Y cells): -4.41%

Structure (SMILES): CN1CCc2[nH]c3c(N(C)Cc4ccccc4)cccc3c2C1 [A1]
viability at 0.01 µM (SH-SY5Y cells): -1.1%

inhibition at 1 µM [4]: 24%
inhibition at 1 µM [1]: 74%
inhibition at 1 µM [3]: 89%
Structure (SMILES): Cc1cc2c3c(c1)c1c(n3CC2c2ccc(F)cc2)CCN(C)C1 (stereo not shown) [B2]

inhibition at 1 µM [4]: 38%
inhibition at 1 µM [1]: 68%
inhibition at 1 µM [3]: 89%
Structure (SMILES): Cc1cc2c3c(c1)c1c(n3CC(c3ccc(F)cc3)C2)CCN(C)C1 (stereo not shown) [B3]

Structure (SMILES): Cc1ccc2c(c1)c1c3n2CC(c2ccc(F)cc2)CC3(C)CN(C)C1 (stereo not shown) [D2]
viability at 0.01 µM (SH-SY5Y cells): 38.4%
